Reference: patent US9169270B2, “1-phenyl-substituted heterocyclyl derivatives and their use as prostaglandin D2 receptor modulators” (Actelion Pharmaceuticals Ltd., priority 2012, dated 2015)

Target: hCRTH2 receptor (Homo sapiens (Human), UniProt Q9Y5Y4)
Test: hCRTH2 receptor membranes radioligand (3H-PGD2) displacement assay
Details: hCRTH2 membrane fragments, Binding-Buffer with 0.1% BSA
Protocol: Biological Assays: Preparation of hCRTH2 Receptor Membranes and Radioligand Displacement Assay:
First, recombinant HEK293-hCRTH2 cells were detached from culture plates into 5 ml buffer A/plate (Buffer A: 5 mM Tris, 1 mM MgCl2-6H2O pH=7.4) using a rubber policeman. Cells were then transferred into centrifugation tubes and centrifuged for 5 min at 400 g. The cell pellet was resuspended in the same buffer and tubes were frozen at −80° C. Cells were thawed and membrane fragments were generated by homogenization using a polytron homogenizer (30 seconds). The membrane fragments were then centrifuged at 3000 g for 20 minutes and resuspended in buffer C (Buffer C: 75 mM Tris, 25 mM MgCl2, 250 mM Saccharose pH 7.4). Aliquots of membrane fragments were stored at −20° C.
Binding assay was performed in a final assay volume of 250 μl. First, 25 μl of test compound, previously diluted in Binding-Buffer (Binding-Buffer: 50 mM Tris-Base, 100 mM NaCl, 1 mM EDTA, 0.1% BSA (protease free), 0.01% NaN3, 10 mM MnCl2, pH 7.0) was placed into each well. […] Binding assay was started by addition of 100 μl CRTH2 membrane fragments, reaching a final concentration of 20 μg/well. For non-specific binding, PGD2 was added to the reaction mixture to […] final concentration. This assay mix was incubated for 90 minutes at room temperature and then filtered through a GF/C filter 96-well plate which was pre-soaked for 3 hours in 0.5% polyethyleneimine (PEI). The filter-wells were washed three times with ice cold Binding-Buffer. Then, 40 μl of Microscint-40 (Packard) was added to each well and the retained radioactivity quantified in a Topcount (Packard).

hCRTH2 receptor, sequence (Q9Y5Y4 whole entry): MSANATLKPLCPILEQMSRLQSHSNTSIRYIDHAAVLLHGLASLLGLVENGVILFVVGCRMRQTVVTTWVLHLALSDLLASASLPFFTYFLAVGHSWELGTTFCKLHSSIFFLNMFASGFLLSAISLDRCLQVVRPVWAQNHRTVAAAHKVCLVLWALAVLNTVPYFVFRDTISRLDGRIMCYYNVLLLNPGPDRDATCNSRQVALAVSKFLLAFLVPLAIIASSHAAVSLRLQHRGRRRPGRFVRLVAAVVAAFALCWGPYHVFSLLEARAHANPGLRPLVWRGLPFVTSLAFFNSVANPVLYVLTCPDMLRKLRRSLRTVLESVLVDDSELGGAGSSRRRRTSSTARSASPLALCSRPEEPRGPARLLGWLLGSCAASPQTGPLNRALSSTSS

Row | IC50 | SMILES
1 | 1.2 nM | Cc1cccc(COC(=O)N2CCc3ncsc3[C@H]2c2cc(Cl)ccc2OCC(=O)O)c1C [Example 72, (R)-4-(2-Carboxymethoxy-5-chloro-phenyl)-6,7-dihydro-4H-thiazolo[5,4-c]pyridine-5-carboxylic acid 2,3-dimethyl-benzyl ester]
2 | 0.5 nM | O=C(O)COc1ccc(Cl)cc1[C@@H]1c2scnc2CCN1C(=O)OCc1cccc(F)c1F [Example 71, (R)-4-(2-Carboxymethoxy-5-chloro-phenyl)-6,7-dihydro-4H-thiazolo[5,4-c]pyridine-5-carboxylic acid 2,3-difluoro-benzyl ester]
3 | 1.7 nM | O=C(O)COc1ccc(Cl)cc1C1c2scnc2CCN1C(=O)OCc1ccc(Cl)cc1 (racemic) [Example 86, (±)-4-(2-Carboxymethoxy-5-chloro-phenyl)-6,7-dihydro-4H-thiazolo[5,4-c]pyridine-5-carboxylic acid 4-chloro-benzyl ester]
4 | 8.5 nM | O=C(O)COc1ccc(Cl)cc1C1c2scnc2CCN1C(=O)OCc1cccc(F)c1F (racemic) [Example 82, (±)-4-(2-Carboxymethoxy-5-chloro-phenyl)-6,7-dihydro-4H-thiazolo[5,4-c]pyridine-5-carboxylic acid 2,3-difluoro-benzyl ester]
5 | 1.2 nM | O=C(O)COc1ccc(Cl)cc1[C@@H]1c2scnc2CCN1C(=O)OCc1ccc(F)cc1 [Example 61, (R)-4-(2-Carboxymethoxy-5-chloro-phenyl)-6,7-dihydro-4H-thiazolo[5,4-c]pyridine-5-carboxylic acid 4-fluoro-benzyl ester]
6 | 7.1 nM | Cc1ccc(COC(=O)N2CCc3ncsc3C2c2cc(Cl)ccc2OCC(=O)O)c(C)c1 (racemic) [Example 100, (±)-4-(2-Carboxymethoxy-5-chloro-phenyl)-6,7-dihydro-4H-thiazolo[5,4-c]pyridine-5-carboxylic acid 2,4-dimethyl-benzyl ester]
7 | 8.9 nM | O=C(O)COc1ccc(Cl)cc1C1c2scnc2CCN1C(=O)NCc1ccccc1Cl (racemic) [Example 108, (±)-{4-Chloro-2-[5-(2-chloro-benzylcarbamoyl)-4,5,6,7-tetrahydro-thiazolo[5,4-c]pyridin-4-yl]-phenoxy}-acetic acid]
8 | 3.5 nM | O=C(O)COc1ccc(Cl)cc1C1c2scnc2CCN1C(=O)OCc1ccccc1Cl (racemic) [Example 84, (±)-4-(2-Carboxymethoxy-5-chloro-phenyl)-6,7-dihydro-4H-thiazolo[5,4-c]pyridine-5-carboxylic acid 2-chloro-benzyl ester]
9 | 9.4 nM | O=C(O)COc1ccc(Cl)cc1C1c2scnc2CCN1C(=O)NCc1ccccc1F (racemic) [Example 1, (±)-{4-Chloro-2-[5-(2-fluoro-benzylcarbamoyl)-4,5,6,7-tetrahydro-thiazolo[5,4-c]pyridin-4-yl]-phenoxy}-acetic acid]

Further lines, the compound ahead of its results:

Row | SMILES | IC50
10 | COc1ccc2[nH]cc(CCC(=O)N3CCc4ncsc4C3c3cc(Cl)ccc3OCC(=O)O)c2c1 (racemic) [Example 26, (±)-(4-Chloro-2-{5-[3-(5-methoxy-1H-indol-3-yl)-propionyl]-4,5,6,7-tetrahydro-thiazolo[5,4-c]pyridin-4-yl}-phenoxy)-acetic acid] | 45.1 nM
11 | C[C@@H](Oc1ccc(Cl)cc1C1c2scnc2CCN1C(=O)OCc1ccccc1)C(=O)O (mixture of isomers) [Example 119, (±)-4-[2-((R)-1-Carboxy-ethoxy)-5-chloro-phenyl]-6,7-dihydro-4H-thiazolo[5,4-c]pyridine-5-carboxylic acid benzyl ester] | 18.5 nM
12 | O=C(O)COc1ccc(Cl)cc1C1c2scnc2CCN1C(=O)NCc1ccc(F)cc1 (racemic) [Example 3, (±)-{4-Chloro-2-[5-(4-fluoro-benzylcarbamoyl)-4,5,6,7-tetrahydro-thiazolo[5,4-c]pyridin-4-yl]-phenoxy}-acetic acid] | 124 nM
13 | C[C@H](Oc1ccc(Cl)cc1C1c2scnc2CCN1C(=O)OCc1ccccc1)C(=O)O (mixture of isomers) [Example 120, (±)-4-[2-((S)-1-Carboxy-ethoxy)-5-chloro-phenyl]-6,7-dihydro-4H-thiazolo[5,4-c]pyridine-5-carboxylic acid benzyl ester] | 64.4 nM
14 | CCC(C)COC(=O)N1CCc2ncsc2[C@H]1c1cc(Cl)ccc1OCC(=O)O (mixture of isomers) [Example 70, (R)-4-(2-Carboxymethoxy-5-chloro-phenyl)-6,7-dihydro-4H-thiazolo[5,4-c]pyridine-5-carboxylic acid (±)-2-methyl-butyl ester] | 2.8 nM
15 | O=C(O)COc1ccc(Cl)cc1C1c2scnc2CCN1C(=O)Cc1n[nH]c2ccccc12 (racemic) [Example 44, (±)-{4-Chloro-2-[5-(2-1H-indazol-3-yl-acetyl)-4,5,6,7-tetrahydro-thiazolo[5,4-c]pyridin-4-yl]-phenoxy}-acetic acid] | 48.1 nM
16 | O=C(O)COc1ccc(Cl)cc1C1c2scnc2CCN1C(=O)C1Cc2ccccc2C1 (racemic) [Example 36, (±)-{4-Chloro-2-[5-(indane-2-carbonyl)-4,5,6,7-tetrahydro-thiazolo[5,4-c]pyridin-4-yl]-phenoxy}-acetic acid] | 733 nM
17 | O=C(O)COc1ccc(Cl)cc1C1c2sc(NS(=O)(=O)C3CC3)nc2CCN1C(=O)OCc1ccccc1 (racemic) [Example 114, (±)-4-(2-Carboxymethoxy-5-chloro-phenyl)-2-cyclopropanesulfonylamino-6,7-dihydro-4H-thiazolo[5,4-c]pyridine-5-carboxylic acid benzyl ester] | 678 nM
18 | Cc1[nH]c2ccccc2c1CCC(=O)N1CCc2ncsc2C1c1cc(Cl)ccc1OCC(=O)O (racemic) [Example 27, (±)-(4-Chloro-2-{5-[3-(2-methyl-1H-indol-3-yl)-propionyl]-4,5,6,7-tetrahydro-thiazolo[5,4-c]pyridin-4-yl}-phenoxy)-acetic acid] | 219 nM
19 | CC(C)(C)CCOC(=O)N1CCc2ncsc2[C@H]1c1cc(Cl)ccc1OCC(=O)O [Example 65, (R)-4-(2-Carboxymethoxy-5-chloro-phenyl)-6,7-dihydro-4H-thiazolo[5,4-c]pyridine-5-carboxylic acid 3,3-dimethyl-butyl ester] | 1.3 nM
20 | O=C(O)COc1ccc(Cl)cc1C1c2scnc2CCN1C(=O)/C=C/c1ccccc1 (racemic) [Example 45, (±)-(4-Chloro-2-{5-[(E)-(3-phenyl-acryloyl)]-4,5,6,7-tetrahydro-thiazolo[5,4-c]pyridin-4-yl}-phenoxy)-acetic acid] | 59.6 nM
21 | O=C(O)COc1ccc(Cl)cc1C1c2sc(Br)nc2CCN1C(=O)OCc1ccccc1 (racemic) [Example 20, (±)-2-Bromo-4-(2-carboxymethoxy-5-chloro-phenyl)-6,7-dihydro-4H-thiazolo[5,4-c]pyridine-5-carboxylic acid benzyl ester] | 3 nM
22 | CS(=O)(=O)Nc1nc2c(s1)C(c1cc(Cl)ccc1OCC(=O)O)N(C(=O)OCc1ccccc1)CC2 (racemic) [Example 113, (±)-4-(2-Carboxymethoxy-5-chloro-phenyl)-2-methanesulfonylamino-6,7-dihydro-4H-thiazolo[5,4-c]pyridine-5-carboxylic acid benzyl ester] | 254 nM
23 | CCCc1nc2c(s1)C(c1cc(Cl)ccc1OCC(=O)O)N(C(=O)OCc1ccccc1)CC2 (racemic) [Example 111, (±)-4-(2-Carboxymethoxy-5-chloro-phenyl)-2-propyl-6,7-dihydro-4H-thiazolo[5,4-c]pyridine-5-carboxylic acid benzyl ester] | 86.4 nM
24 | O=C(O)COc1ccc(Cl)cc1[C@@H]1c2scnc2CCN1C(=O)[C@H]1C[C@@H]1c1ccc(F)cc1 [Example 9, (4-Chloro-2-{(R)-5-[(1S,2S)-2-(4-fluoro-phenyl)-cyclopropanecarbonyl]-4,5,6,7-tetrahydro-thiazolo[5,4-c]pyridin-4-yl}-phenoxy)-acetic acid] | 462 nM
25 | O=C(O)COc1ccc(Cl)cc1C1c2scnc2CCN1C(=O)[C@@H]1C[C@H]1c1ccccc1Cl (mixture of isomers) [Example 24, (±)-(4-Chloro-2-{trans-5-[2-(2-chloro-phenyl)-cyclopropanecarbonyl]-4,5,6,7-tetrahydro-thiazolo[5,4-c]pyridin-4-yl}-phenoxy)-acetic acid] | 7.3 nM
26 | O=C(O)COc1ccc(Cl)cc1[C@@H]1c2scnc2CCN1C(=O)C[C@H]1OCCc2ccccc21 (racemic) [Example 39, (±)-{4-Chloro-2-[5-((±)-2-isochroman-1-yl-acetyl)-4,5,6,7-tetrahydro-thiazolo[5,4-c]pyridin-4-yl]-phenoxy}-acetic acid] | 99.1 nM
27 | O=C(O)COc1ccc(Cl)cc1C1c2scnc2CCN1C(=O)CCCc1ccc(F)cc1 (racemic) [Example 51, (±)-(4-Chloro-2-{5-[4-(4-fluoro-phenyl)-butyryl]-4,5,6,7-tetrahydro-thiazolo[5,4-c]pyridin-4-yl}-phenoxy)-acetic acid] | 9.7 nM
28 | CC1(C)CC1C(=O)N1CCc2ncsc2C1c1cc(Cl)ccc1OCC(=O)O (racemic) [Example 47, (±)-{4-Chloro-2-[(±)-5-(2,2-dimethyl-cyclopropanecarbonyl)-4,5,6,7-tetrahydro-thiazolo[5,4-c]pyridin-4-yl]-phenoxy}-acetic acid] | 37.1 nM
